According to ChEMBL document CHEMBL1158971, “Aromatic Secondary Metabolites from the Sponge Tedania ignis” (J Nat Prod, 1991):

Legend:
[1] = Toxicity against brine shrimp assessed as mortality at 25 ppm after 4 hrs; type: organism-based; conditions: artemia, in vivo; read-out: Activity
[2] = Toxicity against brine shrimp assessed as mortality at 25 ppm after 6 hrs; type: organism-based; conditions: artemia, in vivo; read-out: Activity
[3] = Toxicity against brine shrimp assessed as mortality at 25 ppm after 24 hrs; type: organism-based; conditions: artemia, in vivo; read-out: Activity
[4] = Toxicity against brine shrimp assessed as mortality at 25 ppm after 8 hrs; type: organism-based; conditions: artemia, in vivo; read-out: Activity
Artemia = assay: Toxicity against brine shrimp assessed as mortality at 25 ppm; type: organism-based; conditions: in vivo
Euphorbia esula = assay: Phytotoxicity against Euphorbia esula assessed as necrotic lesions at 5 ug by nicked leaf assay; type: functional

SMILES | mortality at 4 h, 25 ppm [1] [%] | mortality at 6 h, 25 ppm [2] [%] | mortality at 24 h, 25 ppm [3] [%] | mortality at 8 h, 25 ppm [4] [%] | Activity (Artemia) | Activity (Euphorbia esula) [mm]
CC(=O)c1nccc2c1[nH]c1ccccc12 | 14 | 21 | 100 | 43 | – | –
NC(=O)Cc1ccccc1 | – | – | – | – | Not Active | –
Cc1cccc2c1[nH]c1ccccc12 | 82 | 100 | – | – | – | –
CC(=O)/C=C/c1c[nH]c2ccccc12 | 0 | 0 | 39 | 8 | – | –
CC(=O)/C=C/Cc1c[nH]c2ccccc12 | 0 | 0 | 91 | 27 | – | 2
CC(=O)/C=C/c1ccc(C)c(C)c1C | 0 | 50 | 100 | 90 | – | –
CC(=O)/C=C/C(C)=C(\C)c1c[nH]c2ccccc12 | 20 | 20 | 70 | 20 | – | –
O=C(CO)c1c[nH]c2ccccc12 | – | – | – | – | Not Active | –
